Measurements as given in patent US12195427B2, “MASP-2 inhibitors and methods of use” (priority 2018, dated 2025).

Molecular target: MASP-2 CCP2-SP (Homo sapiens (Human), UniProt O00187)
Test: MASP-2 co-crystallization, X-ray crystallography and structure analysis (H-bonds, van der Waals contacts);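 as to Ligand-pharmacophore element distance, pharmacophore element C2: distance from averaged pharmacophore element to bound ligand; missing value means element absent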;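 as to Ligand-pharmacophore element distance, pharmacophore element C3: distance from averaged pharmacophore element to bound ligand; missing value means element absent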;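 as to Ligand-pharmacophore element distance, pharmacophore element C4: distance from averaged pharmacophore element to bound ligand; missing value means element absent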;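 as to Ligand-pharmacophore element distance, pharmacophore element C5: distance from averaged pharmacophore element to bound ligand; missing value means element absent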
Parameters: van der Waals contact distance, MASP-2 HIS 483 atom CD2 / van der Waals contact distance, MASP-2 HIS 483 atom NE2 / van der Waals contact distance, SER 654 C to compound atom / van der Waals contact distance, SER 654 O to compound atom / van der Waals contact distance, TRP 655 C to compound atom / van der Waals contact distance, MASP-2 GLY 528 atom CA / van der Waals contact distance TRP 655 atom CZ3 / van der Waals contact distance TRP 655 atom N / van der Waals contact distance TRP 655 atom CE3 / van der Waals contact distance GLY 656 atom C / van der Waals contact distance GLY 656 atom CA / van der Waals contact distance GLY 656 atom O / van der Waals contact distance, MASP-2 TYR 607 atom CD1 / van der Waals contact distance, MASP-2 PRO 606 atom O / d(C3,CA1) / d(CA1,N1)2 / d(H4,O1) / d(H4,O2) / d(O1,O2) / d(CA1,O2) / d(CA6,O1) / d(CA6,O2) / d(CA1,C5) / d(O2,H3) / d(N2,C2) / d(CA5,N2) / d(N2,C4) / d(N2,C6) / d(N2,CA3) / d(N2,O3) / d(O4,H2): unit not given beside the values
Conditions: for Ligand-pharmacophore element distance, pharmacophore element C2 / Ligand-pharmacophore element distance, pharmacophore element C3 / Ligand-pharmacophore element distance, pharmacophore element C4 / Ligand-pharmacophore element distance, pharmacophore element C5 / Ligand-pharmacophore element distance, pharmacophore element C6 / Ligand-pharmacophore element distance, pharmacophore element C7 / Ligand-pharmacophore element distance, pharmacophore element CA1 / Ligand-pharmacophore element distance, pharmacophore element CA2 / Ligand-pharmacophore element distance, pharmacophore element CA3 / Ligand-pharmacophore element distance, pharmacophore element CA4 / Ligand-pharmacophore element distance, pharmacophore element CA5 / Ligand-pharmacophore element distance, pharmacophore element CA6: Table A4-1; for a(N1, CA1, O1) b): Methyl-amino-pyridine compounds
Outline: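 First, CCP2-SP constructs with or without a 6His tag are produced in E. coli. Crystals are then soaked once or twice with inhibitor, cryoprotected in 20% glycerol or frozen directly, and diffracted at synchrotron beamlines. Phasing uses molecular replacement with parts of 1Q3X.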

[1] = Table A5-1 pharmacophore: distance between elements, S2/S1 region
[2] = Table A5-2 pharmacophore distance, S3/S4 region
[3] = Table A7-1, between pharmacophore elements of the bound compound
[4] = Table A7-2, between pharmacophore elements of the bound compound

Sequence of MASP-2 CCP2-SP (O00187 445-686): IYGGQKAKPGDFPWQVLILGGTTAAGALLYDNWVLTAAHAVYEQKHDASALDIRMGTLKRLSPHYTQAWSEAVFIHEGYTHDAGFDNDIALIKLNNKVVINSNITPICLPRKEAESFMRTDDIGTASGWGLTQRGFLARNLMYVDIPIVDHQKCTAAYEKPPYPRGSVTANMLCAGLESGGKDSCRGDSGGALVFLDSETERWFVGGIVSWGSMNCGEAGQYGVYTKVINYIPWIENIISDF
Sequence of MASP-2 CCP2-SP (O00187 364-432 partner): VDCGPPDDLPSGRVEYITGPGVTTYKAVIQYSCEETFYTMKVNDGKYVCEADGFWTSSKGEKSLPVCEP

Row | Compound | Ligand-pharmacophore element distance, pharmacophore element C2 | Ligand-pharmacophore element distance, pharmacophore element C3 | Ligand-pharmacophore element distance, pharmacophore element C4 | Ligand-pharmacophore element distance, pharmacophore element C5 | Ligand-pharmacophore element distance, pharmacophore element C6 | Ligand-pharmacophore element distance, pharmacophore element C7 | Ligand-pharmacophore element distance, pharmacophore element CA1 | Ligand-pharmacophore element distance, pharmacophore element CA2 | Ligand-pharmacophore element distance, pharmacophore element CA3 | Ligand-pharmacophore element distance, pharmacophore element CA4 | Ligand-pharmacophore element distance, pharmacophore element CA5 | Ligand-pharmacophore element distance, pharmacophore element CA6 | d(CA1,O1) [1] | d(CA1,O2) [1] | d(H4,O1) [1] | d(H4,O2) [1] | d(O1,O2) [1] | d(N2,CA2) [2] | d(O2,H3) [2] | d(O2,N2) [2] | further results
1 | CC(=O)Nc1ccc(CCNC(CCc2ccccc2)C(=O)NC(C)C(=O)NCc2ccc(C(=N)N)cc2)cc1.Cl.Cl (stereo not shown) [1345_2] | 0 | 0 | 0 | 0 | 0 | 0 | 0.45 | 0.89 | 1.13 | 0 | 0 | 0 | 4.58 | 4.16 | 4.97 | 4.32 | 3.32 | 5.98 | 5.51 | 2.87 | d(N2,CA3) [2]: 5.15; d(N2,O3) [2]: 8.73; a(CA1, O1, O2) (Table A6-1 pharmacophore angle): 105.43; a(O1, O2, H4) (Table A6-1 pharmacophore angle): 138.87; a(O1, O2, H3) (Table A6-2 pharmacophore angle): 152.27; a(O1, O2, N2) (Table A6-2 pharmacophore angle): 142.63; a(O2, N2, CA2) (Table A6-2 pharmacophore angle): 153.90; a(O2, N2, CA3) (Table A6-2 pharmacophore angle): 151.66; a(O2, N2, O3) (Table A6-2 pharmacophore angle): 162.76; Pharmacophore torsion angle a(H4, O1, O2, H3) [3]: 49.59; Pharmacophore torsion angle a(H4, O1, O2, N2) [3]: 128.64; Pharmacophore torsion angle a(O1, H4, O2, CA1) [3]: −68.67; Pharmacophore torsion angle a(O1, O2, N2, CA2) [4]: 129.85; Pharmacophore torsion angle a(O1, O2, N2, CA3) [4]: −34.52; Pharmacophore torsion angle a(O1, O2, N2, O3) [4]: −20.78
2 | Cc1nc(N)ccc1CNC(=O)[C@H](C)NC(=O)[C@H]1C[C@H](Cc2ccccc2Br)CN1.O=C(O)C(F)(F)F.O=C(O)C(F)(F)F [1372_A] | 0 | 0.09 | 1.91 | 0 | 0 | 0 | 0.55 | 0.47 | 0 | 0 | 0 | 0 | 4.38 | 3.94 | 4.40 | 3.88 | 3.32 | 5.99 | 2.30 | 2.66 | d(C3,CA1) [1]: 2.85; d(CA1,N1)2 [1]: 1.38; d(N2,C4) [2]: 6.06; d(N2,C4)4 [2]: 6.06; a(C3, CA1, O1) (Table A6-1 pharmacophore angle): 149.88; a(CA1, O1, O2) (Table A6-1 pharmacophore angle): 106.33; a(O1, O2, H4) (Table A6-1 pharmacophore angle): 133.23; a(N1, CA1, O1) b) (Table A6-1 pharmacophore angle): 174.16; a(O1, O2, H3) (Table A6-2 pharmacophore angle): 137.15; a(O1, O2, N2) (Table A6-2 pharmacophore angle): 140.15; a(O2, N2, C4) (Table A6-2 pharmacophore angle): 159.60; a(O2, N2, C4) 2 (Table A6-2 pharmacophore angle): 127.51; a(O2, N2, CA2) (Table A6-2 pharmacophore angle): 155.91; Pharmacophore torsion angle a(C3, CA1, O1, H4) [3]: 25.78; Pharmacophore torsion angle a(H4, O1, O2, H3) [3]: 99.84; Pharmacophore torsion angle a(H4, O1, O2, N2) [3]: 136.36; Pharmacophore torsion angle a(N1, CA1, O1, H4) [3]: 5.73; Pharmacophore torsion angle a(O1, H4, O2, CA1) [3]: −83.68; Pharmacophore torsion angle a(O1, O2, N2, CA2) [4]: 129.48
3 | Cc1nc(N)ccc1CNC(=O)[C@H](C)NC(=O)[C@H]1C[C@H](Cc2ccccc2Br)CN1.O=C(O)C(F)(F)F.O=C(O)C(F)(F)F [1372_B] | 0 | 0.1 | 0 | 0 | 1.46 | 0 | 0.57 | 1.41 | 0 | 0 | 0 | 0 | 4.37 | 4.00 | 4.39 | 3.91 | 3.35 | 6.02 | 2.23 | 2.63 | d(C3,CA1) [1]: 2.85; d(CA1,N1)2 [1]: 1.38; d(N2,C6) [2]: 5.56; a(C3, CA1, O1) (Table A6-1 pharmacophore angle): 149.88; a(CA1, O1, O2) (Table A6-1 pharmacophore angle): 107.52; a(O1, O2, H4) (Table A6-1 pharmacophore angle): 132.88; a(N1, CA1, O1) b) (Table A6-1 pharmacophore angle): 174.13; a(O1, O2, H3) (Table A6-2 pharmacophore angle): 139.74; a(O1, O2, N2) (Table A6-2 pharmacophore angle): 143.19; a(O2, N2, C6) (Table A6-2 pharmacophore angle): 115.79; a(O2, N2, CA2) (Table A6-2 pharmacophore angle): 157.88; Pharmacophore torsion angle a(C3, CA1, O1, H4) [3]: 25.77; Pharmacophore torsion angle a(H4, O1, O2, H3) [3]: 99.85; Pharmacophore torsion angle a(H4, O1, O2, N2) [3]: 139.62; Pharmacophore torsion angle a(N1, CA1, O1, H4) [3]: 4.96; Pharmacophore torsion angle a(O1, H4, O2, CA1) [3]: −82.66; Pharmacophore torsion angle a(O1, O2, N2, C6) [4]: 141.41; Pharmacophore torsion angle a(O1, O2, N2, CA2) [4]: 109.73
4 | CC(NC(=O)C1CC(Cc2ccccc2)CN1)C(=O)NCc1cnc2c(c1)c(Cl)cn2C.Cl.Cl (stereo not shown) [1450_B] | 0 | 0 | 0 | 1.67 | 0 | 1.3 | 0.94 | 1.24 | 0 | 0 | 0 | 0 | 5.49 | 4.57 | 3.14 | 3.46 | 3.83 | 6.07 | 2.32 | 2.67 | d(CA1,C5) [1]: 3.41; d(CA1,O4) [1]: 1.74; a(C5, CA1, O1) (Table A6-1 pharmacophore angle): 150.20; a(CA1, O1, O2) (Table A6-1 pharmacophore angle): 98.92; a(O1, CA1, C7) (Table A6-1 pharmacophore angle): 139.92; a(O1, CA1, O4) (Table A6-1 pharmacophore angle): 66.73; a(O1, O2, H4) (Table A6-1 pharmacophore angle): 109.15; a(O1, O2, H3) (Table A6-2 pharmacophore angle): 123.50; a(O1, O2, N2) (Table A6-2 pharmacophore angle): 138.89; a(O2, N2, CA2) (Table A6-2 pharmacophore angle): 155.81; Pharmacophore torsion angle a(C5, CA1, O1, H4) [3]: 13.21; Pharmacophore torsion angle a(C7, CA1, O1, H4) [3]: −150.35; Pharmacophore torsion angle a(H4, O1, O2, H3) [3]: −176.95; Pharmacophore torsion angle a(H4, O1, O2, N2) [3]: 177.59; Pharmacophore torsion angle a(O1, H4, O2, CA1) [3]: −91.88; Pharmacophore torsion angle a(O1, O2, N2, CA2) [4]: 137.59
